Experimental findings from BindingDB's records for doi:10.7270/Q25719FH (Srmlsc, 2007) are described below.

Usually EC50 stands for the midpoint of the concentration-response curve.

For this assay, the target named is Multidrug resistance-associated protein 1 (Homo sapiens, UniProt P33527). The assay is described as follows: doxorubicin EC50 increase in MRP-1 cells, dose response, cell-based, doxorubicin EC50 shift (AID 844).
Sequence of Multidrug resistance-associated protein 1 (P33527 whole entry): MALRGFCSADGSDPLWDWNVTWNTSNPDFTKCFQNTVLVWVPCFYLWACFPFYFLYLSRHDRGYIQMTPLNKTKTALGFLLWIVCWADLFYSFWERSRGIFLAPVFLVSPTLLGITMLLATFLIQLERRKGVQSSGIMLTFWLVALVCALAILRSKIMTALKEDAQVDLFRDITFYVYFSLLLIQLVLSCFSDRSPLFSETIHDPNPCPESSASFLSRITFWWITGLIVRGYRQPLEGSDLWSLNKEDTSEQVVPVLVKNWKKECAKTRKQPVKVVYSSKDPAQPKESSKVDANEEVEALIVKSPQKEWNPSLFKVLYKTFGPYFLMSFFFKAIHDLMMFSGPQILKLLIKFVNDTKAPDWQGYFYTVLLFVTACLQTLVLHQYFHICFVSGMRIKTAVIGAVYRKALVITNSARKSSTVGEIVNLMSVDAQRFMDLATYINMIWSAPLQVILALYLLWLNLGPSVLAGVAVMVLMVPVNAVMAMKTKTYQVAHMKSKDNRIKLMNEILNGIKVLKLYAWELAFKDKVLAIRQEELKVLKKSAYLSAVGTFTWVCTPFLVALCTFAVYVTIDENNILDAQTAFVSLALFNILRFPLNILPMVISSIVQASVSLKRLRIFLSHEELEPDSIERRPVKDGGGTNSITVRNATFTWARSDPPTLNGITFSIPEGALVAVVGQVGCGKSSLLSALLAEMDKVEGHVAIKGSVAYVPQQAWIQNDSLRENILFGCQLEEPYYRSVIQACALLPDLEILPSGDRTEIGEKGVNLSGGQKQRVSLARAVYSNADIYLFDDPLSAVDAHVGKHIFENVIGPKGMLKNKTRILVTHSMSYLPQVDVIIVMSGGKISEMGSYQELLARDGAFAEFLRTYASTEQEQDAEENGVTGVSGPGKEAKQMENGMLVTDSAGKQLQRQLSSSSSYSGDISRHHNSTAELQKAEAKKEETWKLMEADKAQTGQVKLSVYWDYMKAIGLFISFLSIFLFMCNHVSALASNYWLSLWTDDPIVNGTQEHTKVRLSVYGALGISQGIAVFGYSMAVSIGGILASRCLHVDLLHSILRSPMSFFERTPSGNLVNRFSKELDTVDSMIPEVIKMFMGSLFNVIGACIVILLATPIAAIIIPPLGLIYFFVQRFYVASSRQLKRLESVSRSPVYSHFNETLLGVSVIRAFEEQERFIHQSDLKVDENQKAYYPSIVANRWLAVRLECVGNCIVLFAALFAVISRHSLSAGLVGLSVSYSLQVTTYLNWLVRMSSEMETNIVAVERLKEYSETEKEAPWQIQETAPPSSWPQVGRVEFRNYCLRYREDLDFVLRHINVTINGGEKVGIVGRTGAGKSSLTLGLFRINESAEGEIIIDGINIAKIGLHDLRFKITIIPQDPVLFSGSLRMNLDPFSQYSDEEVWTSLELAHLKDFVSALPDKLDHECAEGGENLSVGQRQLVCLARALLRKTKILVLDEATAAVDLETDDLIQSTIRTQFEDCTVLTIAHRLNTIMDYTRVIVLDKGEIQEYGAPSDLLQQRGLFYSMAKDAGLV
With `COC1(OC)C(O)CCC(N=O)C1N=O` (stereo not given) [2,2-dimethoxy-3-nitroso-4-(oxidanylamino)cyclohex-3-en-1-ol], the EC50 amounted to 4.16 µM.

Regarding `O=C(Nc1nc(O)cs1)c1ccccc1` [MLS000106877], the half-maximal effective concentration (EC50) is 3.78 µM.

Take `O=S(=O)(c1ccc(Cl)cc1Br)N1CCCCC1` [1-(2-bromanyl-4-chloranyl-phenyl)sulfonylpiperidine]: the EC50 came out at 5.42 µM.

As for `C=CCc1c(C)nc(-c2ccccc2)nc1N=NCc1ccccc1` [6-methyl-2-phenyl-N-[(phenylmethylene)amino]-5-prop-2-enyl-4-pyrimidinamine], the EC50 turned out to be 4.7 µM.

Consider `Cc1cc(C)nc(N=NCc2cccc3ccccc23)n1` [(4,6-dimethylpyrimidin-2-yl)-(1-naphthylmethyleneamino)amine], for which the half-maximal effective concentration (EC50) amounted to 5.39 µM.

For the compound `O=C1Nc2ccc(F)cc2C12NC(Cc1ccc(O)cc1)c1c2c(O)n(-c2ccc(F)cc2)c1O` [(3aR,6aS)-5'-fluoranyl-5-(4-fluorophenyl)-1-[(4-hydroxyphenyl)methyl]spiro[1,2,3a,6a-tetrahydropyrrolo[3,4-c]pyrrole-3,3'-1H-indole]-2',4,6-trione], the EC50 was 7.52 µM.

`Cc1cccc(Cc2sc(Nc3ccccn3)nc2O)c1` [5-(3-Methyl-benzyl)-2-(pyridin-2-ylimino)-thiazolidin-4-one]: the EC50 is 6.22 µM.

Take `CCOC(=O)C1C(C)=Nc2sc(C(=O)c3ccc(C)cc3)c(N)c2C1c1ccc(C(=O)OC)cc1` (stereo not given) [3-Amino-4-(4-methoxycarbonyl-phenyl)-6-methyl-2-(4-methyl-benzoyl)-4,7-dihydro-thieno[2,3-b]pyridine-5-carboxylic acid ethyl ester]: the concentration for a half-maximal effect (EC50) worked out at 1.96 µM.

Turning to `Oc1cc(N2CCC(c3nc4ccccc4o3)CC2)c(O)n1-c1cc(Cl)cc(Cl)c1` [3-[4-(1,3-benzoxazol-2-yl)-1-piperidinyl]-1-(3,5-dichlorophenyl)-2,5-pyrrolidinedione], the EC50 stood at 7.36 µM.

With `O=C1CCCC(=O)C1=NNc1ccc2c(c1)OCO2` [2-(1,3-benzodioxol-5-ylhydrazinylidene)cyclohexane-1,3-dione], the EC50 was 6.29 µM.

Turning to `Cc1cc(N=NCc2ccc(O)cc2O)nc(-n2nc(C)cc2C)n1` [(4E)-4-[[2-[2-(3,5-dimethylpyrazol-1-yl)-6-methyl-pyrimidin-4-yl]hydrazinyl]methylidene]-3-oxidanyl-cyclohexa-2,5-dien-1-one], the EC50 is below 0.195 µM.

For `COc1ccc(CN=Nc2nc(-c3ccc(Cl)cc3)cc(C(F)(F)F)n2)cc1OC` [4-(4-chlorophenyl)-N-[(3,4-dimethoxyphenyl)methylideneamino]-6-(trifluoromethyl)-2-pyrimidinamine], the EC50 stood at 1.9 µM.

Take `Oc1nc(Nc2ccccc2)sc1Cc1cccc(Cl)c1Cl` [2-anilino-5-(2,3-dichlorobenzyl)-2-thiazolin-4-one]: the half-maximal effective concentration (EC50) worked out at 6.54 µM.

On to `COC(=O)C(C=Nc1ccc(O)cc1)[N+](=O)[O-]` (stereo not given) [(Z)-3-(4-hydroxyanilino)-2-nitro-2-propenoic acid methyl ester], for which the EC50 was determined as 1.12 µM.

`CCN(CC)S(=O)(=O)c1ccc(N=NC(C#N)C#N)cc1` [4-[2-(dicyanomethylene)hydrazino]-N,N-diethylbenzenesulfonamide]: the concentration giving a half-maximal response (EC50) turned out to be 3.7 µM.

As to `CCN(C1CCCCC1)S(=O)(=O)c1cc(C)ccc1OC` [MLS000028538], the EC50 stood at 3.33 µM.

With `O=c1[nH]c2ccccc2n1C1CCN(c2cc(O)n(-c3ccc(F)cc3)c2O)CC1`, the EC50 was found to be 7.59 µM.

For `C=C(C)C(=O)Nc1cc(=O)n(-c2ccccc2)[nH]1` [2-methyl-N-(5-oxo-1-phenyl-4H-pyrazol-3-yl)prop-2-enamide], the EC50 came to 5.63 µM.

For `O=C(Cc1sc(=O)n(-c2ccccc2)c1O)Nc1ccccc1` [2-(2,4-diketo-3-phenyl-thiazolidin-5-yl)-N-phenyl-acetamide], the half-maximal effective concentration (EC50) turned out to be 6.42 µM.

As for `COc1cccc(C=NNC(=O)c2[nH][nH]c(=O)c2C)c1O` [N'-[(E)-(5-methoxy-6-oxidanylidene-cyclohexa-2,4-dien-1-ylidene)methyl]-4-methyl-5-oxidanylidene-1,4-dihydropyrazole-3-carbohydrazide], the EC50 turned out to be 6.47 µM.

Regarding `CCSC(C)CC1Cc2onc(CC)c2C(N=O)C1` (stereo not given) [3-ethyl-6-[2-(ethylthio)propyl]-6,7-dihydro-5H-1,2-benzoxazol-4-one oxime], the EC50 worked out at 6.85 µM.

For `CCOC(=O)C1C(C)=Nc2sc(C(=O)c3ccc(OC)cc3)c(N)c2C1c1ccc(C(=O)OC)cc1` (stereo not given) [3-Amino-2-(4-methoxy-benzoyl)-4-(4-methoxycarbonyl-phenyl)-6-methyl-4,7-dihydro-thieno[2,3-b]pyridine-5-carboxylic acid ethyl ester], the EC50 was 1.1 µM.

As for `COc1ccc(N2C(=S)C(C#N)C(=O)NC2c2ccco2)cc1` (stereo not given) [2-(2-furanyl)-4-mercapto-3-(4-methoxyphenyl)-6-oxo-1,2-dihydropyrimidine-5-carbonitrile], the EC50 is 2.2 µM.

Regarding `Cc1cc(=O)oc2c1ccc1oc(C(N=O)c3ccccc3)c(C)c12` (stereo not given) [4,9-dimethyl-8-(N-oxidanyl-C-phenyl-carbonimidoyl)furo[2,3-h]chromen-2-one], the concentration for a half-maximal effect (EC50) was determined as 7.02 µM.

In the case of `O=C(O)c1cccc(-n2c(O)c3c(c2O)CC(Cl)=CC3)c1` [3-[5-chloranyl-1,3-bis(oxidanylidene)-3a,4,7,7a-tetrahydroisoindol-2-yl]benzoic acid], the EC50 was found to be 7.97 µM.

As to `COc1ccc(NC(=O)Cc2c(O)n(-c3ccc(F)cc3)c(=S)n2NC(=O)c2ccccc2)cc1` [MLS000592105], the EC50 stood at 4.29 µM.

Take `C=CCc1c(C)nc(-c2ccccc2)nc1N=NC(C)c1ccccc1` (stereo not given) [(5-allyl-6-methyl-2-phenyl-pyrimidin-4-yl)-(1-phenylethylideneamino)amine]: the EC50 is 2.34 µM.

With `COC(=O)C1=C(C)N=C(C)C(C(=O)OC)C1c1ccccc1OCc1c(C)n[o+]n1[O-]` (stereo not given), the concentration for a half-maximal effect (EC50) was 5.32 µM.

`Oc1cc(N2CCN(c3nc4ccccc4s3)CC2)c(O)n1-c1ccc(F)cc1` [3-[4-(1,3-benzothiazol-2-yl)-1-piperazinyl]-1-(4-fluorophenyl)pyrrolidine-2,5-dione]: the concentration for a half-maximal effect (EC50) stood at 6.38 µM.

`O=C1c2ccccc2SC1/C=N/c1cc([N+](=O)[O-])ccc1O` (stereo not given) [(2Z)-2-[[(5-nitro-2-oxidanyl-phenyl)amino]methylidene]-1-benzothiophen-3-one]: the EC50 is 0.457 µM.

Turning to `COc1ccc(NC(=O)Cc2c(O)n(-c3ccc(Cl)cc3)c(=S)n2NC(=O)c2cccc(F)c2)cc1` [MLS000590171], the EC50 came to 3.59 µM.

Consider `O=C1/C(=C/c2nc3ccccc3[nH]2)SC(=S)N1c1ccc(F)cc1` [MLS000331487], for which the EC50 was 3.39 µM.

Consider `Oc1nc(Nc2ccc(Cl)cc2)sc1Cc1cccc(Cl)c1Cl` [2-(4-chloroanilino)-5-(2,3-dichlorobenzyl)-2-thiazolin-4-one], for which the EC50 came out at 6.41 µM.

With `Cc1cccc(NC(=O)Cc2sc(=O)n(-c3ccccc3)c2O)c1` [2-(2,4-Dioxo-3-phenyl-thiazolidin-5-yl)-N-m-tolyl-acetamide], the half-maximal effective concentration (EC50) was found to be 5.15 µM.

Regarding `N#CC1C(=N)SC(=N)C(C#N)C1c1cccc(O)c1` (stereo not given) [2,6-Diamino-4-(3-hydroxy-phenyl)-4H-thiopyran-3,5-dicarbonitrile], the concentration giving a half-maximal response (EC50) came out at 5.78 µM.
